Test results as given in ChEMBL document CHEMBL1158605, “Synthesis of novel beta-lactam fused spiroisoxazolidine chromanones and tetralones as potent antimicrobial agent for human and plant pathogens” (2010).
Values after ≈ are worked out from the molar mass of the structure shown.

How the values were obtained:
[1] = tested on: Proteus mirabilis; assay: Antibacterial activity against Proteus mirabilis; type: functional
[2] = tested on: Proteus vulgaris; assay: Antibacterial activity against Proteus vulgaris; type: functional
[3] = tested on: Salmonella enterica; assay: Antibacterial activity against Salmonella typhi; type: functional, Salmonella enterica subsp. enterica serovar Typhi
[4] = tested on: Fusarium oxysporum; assay: Antifungal activity against Fusarium oxysporum; type: functional
[5] = tested on: Staphylococcus aureus; assay: Antibacterial activity against Staphylococcus aureus; type: functional
[6] = tested on: Macrophomina phaseolina; assay: Antifungal activity against Macrophomina phaseolina; type: functional

SMILES | MIC [1] | MIC [2] | MIC [3] | MIC [4] | MIC [5] | MIC [6]
COc1ccc(N2C(=O)[C@H]3[C@@H]2[C@H]2[C@H](c4ccc(Cl)cc4)[C@]4(CCc5ccccc5C4=O)ON2[C@@H]3C[Se]c2ccccc2)cc1 | 40 µg/mL (≈ 59.7 µM) | 45 µg/mL (≈ 67.2 µM) | 30 µg/mL (≈ 44.8 µM) | 50 µg/mL (≈ 74.6 µM) | 35 µg/mL (≈ 52.2 µM) | 25 µg/mL (≈ 37.3 µM)
COc1ccc(N2C(=O)[C@H]3[C@@H]2[C@H]2[C@H](c4ccc(C)cc4)[C@]4(CCc5ccccc5C4=O)ON2[C@@H]3C[Se]c2ccccc2)cc1 | 50 µg/mL (≈ 77 µM) | 45 µg/mL (≈ 69.3 µM) | 35 µg/mL (≈ 53.9 µM) | 75 µg/mL (≈ 115 µM) | 40 µg/mL (≈ 61.6 µM) | 25 µg/mL (≈ 38.5 µM)
COc1ccc(N2C(=O)[C@H]3[C@@H]2[C@H]2[C@H](c4ccc(Br)cc4)[C@]4(COc5ccccc5C4=O)ON2[C@@H]3C[Se]c2ccccc2)cc1 | 30 µg/mL (≈ 41.9 µM) | 25 µg/mL (≈ 34.9 µM) | 45 µg/mL (≈ 62.8 µM) | 150 µg/mL (≈ 209 µM) | 30 µg/mL (≈ 41.9 µM) | 75 µg/mL (≈ 105 µM)
COc1ccc([C@H]2[C@@H]3[C@H]4[C@H](C(=O)N4c4ccc(OC)cc4)[C@@H](C[Se]c4ccccc4)N3O[C@@]23COc2ccccc2C3=O)cc1 | 25 µg/mL (≈ 37.4 µM) | 15 µg/mL (≈ 22.5 µM) | 45 µg/mL (≈ 67.4 µM) | 125 µg/mL (≈ 187 µM) | 40 µg/mL (≈ 59.9 µM) | 75 µg/mL (≈ 112 µM)
COc1ccc(N2C(=O)[C@H]3[C@@H]2[C@H]2[C@H](c4ccc(Br)cc4)[C@]4(CCc5ccccc5C4=O)ON2[C@@H]3C[Se]c2ccccc2)cc1 | 50 µg/mL (≈ 70 µM) | 35 µg/mL (≈ 49 µM) | 35 µg/mL (≈ 49 µM) | 150 µg/mL (≈ 210 µM) | 45 µg/mL (≈ 63 µM) | 75 µg/mL (≈ 105 µM)
COc1ccc(N2C(=O)[C@H]3[C@@H]2[C@H]2[C@H](c4ccccc4)[C@]4(CCc5ccccc5C4=O)ON2[C@@H]3C[Se]c2ccccc2)cc1 | 55 µg/mL (≈ 86.5 µM) | 40 µg/mL (≈ 62.9 µM) | 45 µg/mL (≈ 70.8 µM) | 125 µg/mL (≈ 197 µM) | 25 µg/mL (≈ 39.3 µM) | 75 µg/mL (≈ 118 µM)
CN(C)[C@@H]1C(O)=C(C(N)=O)C(=O)[C@@]2(O)C(O)=C3C(=O)c4c(O)cccc4[C@@](C)(O)[C@H]3C[C@@H]12 [TETRACYCLINE] | 20 µg/mL (≈ 45 µM) | 15 µg/mL (≈ 33.8 µM) | 15 µg/mL (≈ 33.8 µM) |  | 10 µg/mL (≈ 22.5 µM) | 
COc1ccc([C@H]2[C@@H]3[C@H]4[C@H](C(=O)N4c4ccc(OC)cc4)[C@@H](C[Se]c4ccccc4)N3O[C@@]23CCc2ccccc2C3=O)cc1 | 50 µg/mL (≈ 75.1 µM) | 35 µg/mL (≈ 52.6 µM) | 40 µg/mL (≈ 60.1 µM) | 125 µg/mL (≈ 188 µM) | 45 µg/mL (≈ 67.6 µM) | 50 µg/mL (≈ 75.1 µM)
COC(=O)Nc1nc2ccccc2[nH]1 [CARBENDAZIM] |  |  |  | 18 µg/mL (≈ 94.1 µM) |  | 15 µg/mL (≈ 78.5 µM)
COc1ccc(N2C(=O)[C@H]3[C@@H]2[C@H]2[C@H](c4ccc(Cl)cc4)[C@]4(COc5ccccc5C4=O)ON2[C@@H]3C[Se]c2ccccc2)cc1 | 20 µg/mL (≈ 29.8 µM) | 10 µg/mL (≈ 14.9 µM) | 25 µg/mL (≈ 37.2 µM) | 75 µg/mL (≈ 112 µM) | 20 µg/mL (≈ 29.8 µM) | 50 µg/mL (≈ 74.4 µM)
COc1ccc(N2C(=O)[C@H]3[C@@H]2[C@H]2[C@H](c4ccccc4)[C@]4(COc5ccccc5C4=O)ON2[C@@H]3C[Se]c2ccccc2)cc1 | 55 µg/mL (≈ 86.3 µM) | 30 µg/mL (≈ 47.1 µM) | 20 µg/mL (≈ 31.4 µM) | 125 µg/mL (≈ 196 µM) | 45 µg/mL (≈ 70.6 µM) | 50 µg/mL (≈ 78.4 µM)
COc1ccc(N2C(=O)[C@H]3[C@@H]2[C@H]2[C@H](c4ccc(C)cc4)[C@]4(COc5ccccc5C4=O)ON2[C@@H]3C[Se]c2ccccc2)cc1 | 65 µg/mL (≈ 99.8 µM) | 40 µg/mL (≈ 61.4 µM) | 35 µg/mL (≈ 53.7 µM) | 150 µg/mL (≈ 230 µM) | 45 µg/mL (≈ 69.1 µM) | 75 µg/mL (≈ 115 µM)
